Laboratory results reported in article PMC11372837, “Albumin-Mediated Drug Uptake by Organic Anion Transporter 1/3 Is Real: Implications for the Prediction of Active Renal Secretion Clearance” (Molecular Pharmaceutics, 2024).
Entries after “also recorded” stand apart in the source; their conditions may differ. Like-named read-outs stand apart in the source and are kept apart here.

Assays:
[1] = Observed in vivo (clinical) renal, secretion and intrinsic secretion clearance; conditions: in vivo; for CLint,sec Observed: back-calculated from clinical data
[2] = system: OAT1; test: as above; conditions: human, plasma
[3] = system: OAT1/3; test: Bottom-up IVIVE of CLint,sec, CLsec and CLr, relative expression factor (REF) approach; design: species or system human; conditions: REF approach
Excerpt: (§1) The relative expression and relative activity factor (REF and RAF) are unitless scalers that account for in vivo versus in vitro differences in the abundance and activity of OAT1/3 and are used for IVIVE of in vitro CLint,u,active. REF was derived from the OAT1/3 expression ratio between the in vivo human kidney cortex to the in vitro ciPTEC-OAT1/3, as shown in eq 7: [drawing 8] 7 Absolute abundance of OAT1 and OAT3 in the human kidney cortex was previously quantified by our group using the filter-aided sample preparation protocol and global proteomic analysis.[44]

[4] = biological target: T1, OAT3 (Homo sapiens, UniProt Q8TCC7); test: OAT3 uptake study in ciPTEC-OAT3; conditions: for Vb,max OAT3, Active and Passive Uptake: eq 4 fitted to CLint,u; for Vb,max OAT3, Active and Passive Uptake / Vb,max OAT3, Active Uptake Only: mean ± S.D.; for Vb,max OAT3, Active Uptake Only: eq 4 fitted to CLint,u,active
T1 sequence (Q8TCC7 1-542): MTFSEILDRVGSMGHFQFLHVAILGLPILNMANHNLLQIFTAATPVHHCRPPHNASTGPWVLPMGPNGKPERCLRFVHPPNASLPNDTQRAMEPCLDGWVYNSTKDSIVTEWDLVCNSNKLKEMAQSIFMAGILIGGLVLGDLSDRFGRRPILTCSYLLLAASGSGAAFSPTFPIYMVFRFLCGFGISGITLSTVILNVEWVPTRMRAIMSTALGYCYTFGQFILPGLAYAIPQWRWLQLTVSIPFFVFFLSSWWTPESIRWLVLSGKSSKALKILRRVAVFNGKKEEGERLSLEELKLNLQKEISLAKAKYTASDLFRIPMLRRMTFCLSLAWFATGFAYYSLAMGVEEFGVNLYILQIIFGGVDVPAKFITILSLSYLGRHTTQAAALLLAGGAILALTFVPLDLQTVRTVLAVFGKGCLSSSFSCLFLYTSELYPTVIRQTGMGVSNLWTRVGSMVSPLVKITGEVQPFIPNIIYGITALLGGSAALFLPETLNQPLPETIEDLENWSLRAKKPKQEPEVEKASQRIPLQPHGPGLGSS

[5] = biological target: T2, OAT1 (Homo sapiens, UniProt Q4U2R8); test: OAT1 uptake study in ciPTEC-OAT1
T2 sequence (Q4U2R8 1-563): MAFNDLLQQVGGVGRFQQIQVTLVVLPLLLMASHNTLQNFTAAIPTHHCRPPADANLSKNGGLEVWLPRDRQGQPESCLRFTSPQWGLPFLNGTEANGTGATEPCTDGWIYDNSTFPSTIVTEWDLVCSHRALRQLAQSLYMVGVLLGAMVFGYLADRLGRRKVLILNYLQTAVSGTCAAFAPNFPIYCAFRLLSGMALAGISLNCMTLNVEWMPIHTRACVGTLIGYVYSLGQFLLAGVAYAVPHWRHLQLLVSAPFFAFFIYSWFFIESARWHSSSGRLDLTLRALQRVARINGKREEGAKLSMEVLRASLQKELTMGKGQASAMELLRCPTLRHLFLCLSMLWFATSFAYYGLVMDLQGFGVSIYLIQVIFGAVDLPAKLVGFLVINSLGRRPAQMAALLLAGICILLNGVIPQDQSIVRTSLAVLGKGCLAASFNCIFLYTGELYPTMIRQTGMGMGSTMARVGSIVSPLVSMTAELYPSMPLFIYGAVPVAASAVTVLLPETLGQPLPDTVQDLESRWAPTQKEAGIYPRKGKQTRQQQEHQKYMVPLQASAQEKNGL

[6] = in vivo, plasma renal clearance, clinical data; cited from earlier work
[7] = biological target: human serum albumin (Homo sapiens, UniProt P02768); test: Extent of albumin binding: high throughput equilibrium dialysis (fu,inc, Kd); type: in vitro ADME; conditions: mean ± SD; for fu,inc (4%) / fraction unbound at 6 h: equilibrium dialysis 37 °C 6 h; for fraction unbound at 6 h: human
Sequence of human serum albumin (P02768 25-609): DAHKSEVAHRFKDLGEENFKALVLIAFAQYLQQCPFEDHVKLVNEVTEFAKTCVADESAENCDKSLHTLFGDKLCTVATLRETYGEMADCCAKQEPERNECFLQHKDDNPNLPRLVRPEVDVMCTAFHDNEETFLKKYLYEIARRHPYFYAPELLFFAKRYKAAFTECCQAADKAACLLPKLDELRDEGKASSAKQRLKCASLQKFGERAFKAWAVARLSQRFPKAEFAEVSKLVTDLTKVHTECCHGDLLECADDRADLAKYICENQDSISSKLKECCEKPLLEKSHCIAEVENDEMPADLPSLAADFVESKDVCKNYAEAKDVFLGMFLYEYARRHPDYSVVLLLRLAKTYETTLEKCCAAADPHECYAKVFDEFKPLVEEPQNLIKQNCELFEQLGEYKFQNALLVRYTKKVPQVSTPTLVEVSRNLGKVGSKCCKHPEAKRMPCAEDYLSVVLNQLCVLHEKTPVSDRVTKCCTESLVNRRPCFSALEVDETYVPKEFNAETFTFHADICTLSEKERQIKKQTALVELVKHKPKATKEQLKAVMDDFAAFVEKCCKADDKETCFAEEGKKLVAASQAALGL
Experimental: Briefly, cellulose membranes with MWCO of 12–14 kDa were submerged in distilled water for 1 h, followed by 20% ethanol/distilled water for at least 20 min. Prior to the start of the experiment, cellulose membranes were rinsed in distilled water and submerged in blank DPBS for 15 min. The HTDialysis device was assembled according to the manufacturer’s instructions (https://www.htdialysis.com). Blank DPBS was first added to the receiver side of the dialysis membranes, followed by DPBS spiked with HSA and the OAT1/3 substrate to the donor side. Each HSA concentration was tested in triplicates. The HTDialysis device was sealed with an adhesive sealing film and incubated in a water bath at 37 °C for 6 h shaken at 150 rpm. Once the assay was completed, aliquots from both receiver and donor wells were transferred to a 96-well plate and stored at −80 °C until analysis. DPBS spiked with the OAT1/3 substrate from both before and after incubation was stored to assess the recovery and stability of the samples. To prepare the sample for analysis, donor and receiver samples were matrix-matched and quenched with ice-cold acetonitrile containing an internal standard (0.5 μM gemfibrozil or 0.05 μM buspirone).

[8] = human, in vivo
[9] = system: OAT3; test: clinical; conditions: human
[10] = system: OAT1/3; test: Bottom-up IVIVE of CLint,sec, CLsec and CLr, relative activity factor (RAF) approach; design: species or system human
Excerpt: as §1

[11] = 1% human serum albumin in DPBS, 1% HSA, read-out: fu,inc (1%)
[12] = 4% HSA in DPBS, 4% HSA, read-out: fu,inc (4%)

fraction unbound at 6 h [7, 11]	fraction unbound at 6 h [7, 12]	CLsec Observed [8] [L/h]	Vb,max OAT3, Active and Passive Uptake [4] [pmol/min/mg]	Vb,max OAT3, Active Uptake Only [4] [pmol/min/mg]	SMILES	CLint,sec Observed [1] [L/h]	CLint,sec Predicted 0% HSA [3] [L/h]	CLint,sec Predicted 1% HSA [3] [L/h]	CLint,sec Predicted 4% HSA [3] [L/h]	CLsec Predicted 0% HSA [3] [L/h]	CLsec Predicted 1% HSA [3] [L/h]	CLsec Predicted 4% HSA [3] [L/h]	CLr Observed [6] [L/h]	fu,inc (4%) ([7]; 4% HSA)	also measured
0.973 ± 0.039	> 0.95	8.29	-1150 ± 2660	-1120 ± 2640	CCC(CC)O[C@@H]1C=C(C(=O)O)C[C@H](N)[C@H]1NC(C)=O [oseltamivir carboxylate]	–	–	–	–	–	–	–	15.6	0.983 ± 0.018	CLint,sec Observed [8]: 11.7 L/h; Effect of HSA on OAT3 uptake / CLint,u,active ([4]; 1 and 4% HSA vs control): no effect; also recorded: did not show any significant change; also recorded: absence of any change; microsomal CLint [9]: 36.2 µL/min/mg
0.217 ± 0.006	0.096 ± 0.007	2.63	723 ± 216	714 ± 201	O=C(NC[C@H]1CN(c2ccc(N3CCOCC3=O)cc2)C(=O)O1)c1ccc(Cl)s1 [rivaroxaban]	41.2	6.78	41.7	67.0	0.48	2.79	4.32	3.17	–	ratio of CLint,u,active (R) (HSA/control) 1% ([4]; OAT3, 1% HSA vs control): 6.44 ± 2.61; ratio of CLint,u,active (R) (HSA/control) 4% ([4]; OAT3, 4% HSA vs control): 10.0 ± 2.2; OAT1 substrate status (uptake in ciPTEC-OAT1) ([5]; control vs probenecid 300 μM): did not show any appreciable uptake; CLint,sec Predicted 0% HSA [10]: 34.1 L/h; CLint,sec Predicted 1% HSA [10]: 210 L/h; CLint,sec Predicted 4% HSA [10]: 337.7 L/h; CLsec Predicted 0% HSA [10]: 2.32 L/h; CLsec Predicted 1% HSA [10]: 11.1 L/h; CLsec Predicted 4% HSA [10]: 15.4 L/h; Kd ([7]; estimated using eq 3 from measured fu,inc): 55 ± 4.3 µM

SMILES	fraction unbound at 6 h [7, 11]	fraction unbound at 6 h [7, 12]	CLsec Observed [8] [L/h]	Vb,max OAT3, Active and Passive Uptake [4] [pmol/min/mg]	Vb,max OAT3, Active Uptake Only [4] [pmol/min/mg]	CLint,sec Observed [1] [L/h]	CLint,sec Predicted 0% HSA [3] [L/h]	CLint,sec Predicted 1% HSA [3] [L/h]	CLint,sec Predicted 4% HSA [3] [L/h]	CLsec Predicted 0% HSA [3] [L/h]	CLsec Predicted 1% HSA [3] [L/h]	CLsec Predicted 4% HSA [3] [L/h]	CLr Observed [6] [L/h]	fu,inc (4%) ([7]; 4% HSA)	also measured
Nc1ncnc2c1ncn2CCOCP(=O)(O)O [adefovir]	0.999 ± 0.019	> 0.95	–	–	–	10.8	42.9	57.8	44.7	21.3	25.1	21.8	14.2	0.977 ± 0.062	CLsec Observed ([1]; plasma secretion clearance): 7.82 L/h; microsomal CLint [2]: 35.2 µL/min/mg; OAT3 substrate status (uptake in ciPTEC-OAT3) ([4]; control vs probenecid 300 μM): not an OAT3 substrate; Effect of HSA on OAT1 uptake / CLint,u,active ([5]; 1 and 4% HSA vs control): no effect; also recorded: did not show any significant change; also recorded: absence of any change; Vb,max OAT1, Active and Passive Uptake ([5]; eq 4 fitted to CLint,u, mean ± S.D.): -1083 ± 194000 pmol/min/mg; Vb,max OAT1, Active Uptake Only ([5]; eq 4 fitted to CLint,u,active, Kd,m fixed from OAT3 data, mean ± S.D.): 3055 ± 188000 pmol/min/mg
